From US20210364497A1, “IFN-beta Reporter System for Primary Cells” (UNIVERSITY OF MIAMI, priority 2018, published 2021)

Tested on: Human IFNβ promoter
Test: GLuc/SEAP dual reporter assay of the IFNβ promoter in hTERT-pIFNβ-GLuc cells
Format: cell-based
Details: FIG. 3B; hTERT-pIFNB-Gluc cells treated, 3 μg/ml, 24 hours
Experimental: Human IFNβ promoter (sequence in FIG. 1) was cloned into Lentiviral vector pEZX-LvPG04 at GeneCopoeia. Lentiviral plasmid was co-transfected with LentiViral Package System (LENT-PACT™) into 293T cells using Lipofectamine 2000. 293T medium containing Lentiviral particles was collected 48 hours post transfection, filtered through 0.2 μM filter, and transduced to pre-seeded hTERT cells in the presence of 10 μg/ml polybrene. Transduction was repeated twice in 2 consecutive days. 48 hours after the last transduction, hTERT cells were selected by 2 μg/ml puromycin for 4 weeks. Single colonies of transduced hTERT cells were puromycin selected, and expanded for IENβ promoter-luciferase assay validation.
To test the establishment of GLuc/SEAP-ρIENs1 reporter system, hTERT clones were mock treated (lipo) or transfected with synthetic double-stranded DNA (dsDNA). hTERT-ρIENβ-GLuc cells were transfected with synthetic 90-mer double-stranded DNA (dsDNA90) at 3 μg/ml using Lipofectamine 2000. 24 hours later, cell media was collected and analyzed for GLuc and SEAP activity using the Secrete-Pair Dual Luminescence Assay Kits (GeneCopoeia).
In additional experiments, hTERT-pIFNB-Gluc cells were treated with LPS1 (1 μg/ml) or transfected with dsDNA90 (3 μg/ml) or 2′-3′ cGAMP (3 μg/ml) for 24 hours. […]

## poly I:C
  GLuc expression (Gluc activity normalized by SEAP internal control): activated
